Converted amounts (≈) assume the structure as drawn. Like-named read-outs stand apart in the source and are kept apart here. Square brackets hold non-standard residues; d marks the D form. Ends that are not written are not given here. Peptide text beside a SMILES is read from it. * marks the point of attachment. Trp(2-Pmc) = Cc1c(C)c(S(=O)(=O)c2[nH]c3ccccc3c2C[C@H](N)C(=O)O)c(C)c2c1OC(C)(C)CC2; Acm = CC(=O)NC*
Experiments:
[1] = system: Escherichia coli ATCC 25922; type: cell-based
Protocol: (§1) The bacterial strains used were: Escherichia coli ATCC 25922 and Staphylococcus aureus ATCC 25923. All strains were stored at −70° C. The bacteria were grown in 2% Bacto Peptone water (Difco 1807-17-4). All tests were performed with bacteria in mid-logarithmic growth phase. Determination of the minimum inhibitory concentration (MIC) of the peptides for bacterial strains were performed in 1% Bacto Peptone water. A standard microdilution technique with an inoculum of 2×10^6 CFU/ml was used. All assays were performed in triplets. Since the peptides are positively charged and therefore could adhere to the plastic wells, we controlled the actual concentration of the peptides in the solution by HPLC. There was no difference between the concentration of the peptides before or after adding the solution to the plastic wells.

[2] = system: Staphylococcus aureus ATCC 25923; type: cell-based
Protocol: as §1

Compound | MIC E. coli ([1]; ATCC 25922) [µg/mL] | MIC S. aureus ([2]; ATCC 25923) [µg/mL] | other results
CSCC[C@H](NC(=O)[C@H](CCCNC(=N)N)NC(=O)[C@H](Cc1c[nH]c2ccccc12)NC(=O)[C@H](CCC(N)=O)NC(=O)[C@H](Cc1c[nH]c2ccccc12)NC(=O)[C@H](CCCNC(=N)N)NC(=O)[C@H](CCCNC(=N)N)NC(=O)[C@H](CSCNC(C)=O)NC(=O)[C@@H](N)CCCCN)C(=O)N[C@@H](CCCCN)C(=O)N[C@@H](CCCCN)C(=O)N[C@@H](CC(C)C)C(=O)NCC(=O)N[C@@H](C)C(=O)O [LFB 18-31] (H-KC(Acm)RRWQWRMKKLGA-OH; N-terminus assumed) |  |  | MIC E. coli ATCC 25922 ([1]; ATCC 25922): 80 µg/mL; MIC E. coli ATCC 25922 ([1]; Table 1, value in brackets): 43 µM; MIC E. coli ([1]; Table 11): 80 µg/mL (≈ 41.7 µM); MIC S. aureus ATCC 25923 ([2]; ATCC 25923): 200 µg/mL; MIC S. aureus ATCC 25923 ([2]; Table 1, value in brackets): 108 µM; MIC S. aureus ([2]; Table 11): 200 µg/mL (≈ 104 µM)
CSCC[C@H](NC(=O)[C@H](CCCNC(=N)N)NC(=O)[C@H](Cc1c[nH]c2ccccc12)NC(=O)[C@H](CCC(N)=O)NC(=O)[C@H](Cc1c[nH]c2ccccc12)NC(=O)[C@H](CCCNC(=N)N)NC(=O)[C@H](CCCNC(=N)N)NC(=O)[C@@H](N)CSCNC(C)=O)C(=O)N[C@@H](CCCCN)C(=O)N[C@@H](CCCCN)C(=O)N[C@@H](CC(C)C)C(=O)NCC(=O)N[C@@H](C)C(=O)O [LFB 19-31] (H-C(Acm)RRWQWRMKKLGA-OH; N-terminus assumed) | 200 (≈ 112 µM) | >250 | MIC E. coli ATCC 25922 ([1]; ATCC 25922): 200 µg/mL; MIC E. coli ATCC 25922 ([1]; Table 1, value in brackets): 120 µM; MIC S. aureus ATCC 25923 ([2]; ATCC 25923): > 250 µg/mL; MIC S. aureus ATCC 25923 ([2]; Table 1, value in brackets): > 150 µM
CSCC[C@H](NC(=O)[C@H](CCCNC(=N)N)NC(=O)[C@H](Cc1c[nH]c2ccccc12)NC(=O)[C@H](CCC(N)=O)NC(=O)[C@H](Cc1c[nH]c2ccccc12)NC(=O)[C@H](CCCNC(=N)N)NC(=O)[C@H](CCCNC(=N)N)NC(=O)[C@H](CSCNC(C)=O)NC(=O)[C@H](CCCCN)NC(=O)[C@H](C)N)C(=O)N[C@@H](CCCCN)C(=O)N[C@@H](CCCCN)C(=O)N[C@@H](CC(C)C)C(=O)NCC(=O)N[C@@H](C)C(=O)O [LFB A1] (H-AKC(Acm)RRWQWRMKKLGA-OH) | 70 (≈ 35.2 µM) | >200 | 
CSCC[C@H](NC(=O)[C@H](CCCNC(=N)N)NC(=O)[C@H](Cc1c[nH]c2ccccc12)NC(=O)[C@H](CCC(N)=O)NC(=O)[C@H](Cc1c[nH]c2ccccc12)NC(=O)[C@H](CCCNC(=N)N)NC(=O)[C@H](CCCNC(=N)N)NC(=O)[C@H](CSCNC(C)=O)NC(=O)[C@H](C)NC(=O)[C@@H](N)Cc1ccccc1)C(=O)N[C@@H](CCCCN)C(=O)N[C@@H](CCCCN)C(=O)N[C@@H](CC(C)C)C(=O)NCC(=O)N[C@@H](C)C(=O)O [LFB A2] (H-FAC(Acm)RRWQWRMKKLGA-OH) | 80 (≈ 39.8 µM) | >200 | 
CSCC[C@H](NC(=O)[C@H](CCCNC(=N)N)NC(=O)[C@H](Cc1c[nH]c2ccccc12)NC(=O)[C@H](CCC(N)=O)NC(=O)[C@H](Cc1c[nH]c2ccccc12)NC(=O)[C@H](CCCNC(=N)N)NC(=O)[C@H](C)NC(=O)[C@H](CSCNC(C)=O)NC(=O)[C@H](CCCCN)NC(=O)[C@@H](N)Cc1ccccc1)C(=O)N[C@@H](CCCCN)C(=O)N[C@@H](CCCCN)C(=O)N[C@@H](CC(C)C)C(=O)NCC(=O)N[C@@H](C)C(=O)O [LFB A4] (H-FKC(Acm)ARWQWRMKKLGA-OH) |  | >200 | 
CSCC[C@H](NC(=O)[C@H](CCCNC(=N)N)NC(=O)[C@H](Cc1c[nH]c2ccccc12)NC(=O)[C@H](CCC(N)=O)NC(=O)[C@H](Cc1c[nH]c2ccccc12)NC(=O)[C@H](C)NC(=O)[C@H](CCCNC(=N)N)NC(=O)[C@H](CSCNC(C)=O)NC(=O)[C@H](CCCCN)NC(=O)[C@@H](N)Cc1ccccc1)C(=O)N[C@@H](CCCCN)C(=O)N[C@@H](CCCCN)C(=O)N[C@@H](CC(C)C)C(=O)NCC(=O)N[C@@H](C)C(=O)O [LFB A5] (H-FKC(Acm)RAWQWRMKKLGA-OH) | 120 (≈ 60.6 µM) | >200 | 
CSCC[C@H](NC(=O)[C@H](CCCNC(=N)N)NC(=O)[C@H](Cc1c(S(=O)(=O)c2c(C)c(C)c3c(c2C)CCC(C)(C)O3)[nH]c2ccccc12)NC(=O)[C@H](CCC(N)=O)NC(=O)[C@H](C)NC(=O)[C@H](CCCNC(=N)N)NC(=O)[C@H](CCCNC(=N)N)NC(=O)[C@H](CSCNC(C)=O)NC(=O)[C@H](CCCCN)NC(=O)[C@@H](N)Cc1ccccc1)C(=O)N[C@@H](CCCCN)C(=O)N[C@@H](CCCCN)C(=O)N[C@@H](CC(C)C)C(=O)NCC(=O)N[C@@H](C)C(=O)O [LFB A6 PMC] (H-FKC(Acm)RRAQ[Trp(2-Pmc)]RMKKLGA-OH) | 25 (≈ 11.3 µM) | 17.5 (≈ 7.89 µM) | 
CSCC[C@H](NC(=O)[C@H](C)NC(=O)[C@H](Cc1c[nH]c2ccccc12)NC(=O)[C@H](CCC(N)=O)NC(=O)[C@H](Cc1c[nH]c2ccccc12)NC(=O)[C@H](CCCNC(=N)N)NC(=O)[C@H](CCCNC(=N)N)NC(=O)[C@H](CSCNC(C)=O)NC(=O)[C@H](CCCCN)NC(=O)[C@@H](N)Cc1ccccc1)C(=O)N[C@@H](CCCCN)C(=O)N[C@@H](CCCCN)C(=O)N[C@@H](CC(C)C)C(=O)NCC(=O)N[C@@H](C)C(=O)O [LFB A9] (H-FKC(Acm)RRWQWAMKKLGA-OH) | 55 (≈ 27.8 µM) | >200 | 
CC(=O)NCSC[C@H](NC(=O)[C@H](CCCCN)NC(=O)[C@@H](N)Cc1ccccc1)C(=O)N[C@@H](CCCNC(=N)N)C(=O)N[C@@H](CCCNC(=N)N)C(=O)N[C@@H](Cc1c[nH]c2ccccc12)C(=O)N[C@@H](CCC(N)=O)C(=O)N[C@@H](Cc1c[nH]c2ccccc12)C(=O)N[C@@H](CCCNC(=N)N)C(=O)N[C@@H](C)C(=O)N[C@@H](CCCCN)C(=O)N[C@@H](CCCCN)C(=O)N[C@@H](CC(C)C)C(=O)NCC(=O)N[C@@H](C)C(=O)O [LFB A10] (H-FKC(Acm)RRWQWRAKKLGA-OH) | 140 (≈ 69.8 µM) | >200 | 
CSCC[C@H](NC(=O)[C@H](CCCNC(=N)N)NC(=O)[C@H](Cc1c[nH]c2ccccc12)NC(=O)[C@H](CCC(N)=O)NC(=O)[C@H](Cc1c[nH]c2ccccc12)NC(=O)[C@H](CCCNC(=N)N)NC(=O)[C@H](CCCNC(=N)N)NC(=O)[C@H](CSCNC(C)=O)NC(=O)[C@H](CCCCN)NC(=O)[C@@H](N)Cc1ccccc1)C(=O)N[C@@H](C)C(=O)N[C@@H](CCCCN)C(=O)N[C@@H](CC(C)C)C(=O)NCC(=O)N[C@@H](C)C(=O)O [LFB A11] (H-FKC(Acm)RRWQWRMAKLGA-OH) | 70 (≈ 34.9 µM) | >200 | 
CSCC[C@H](NC(=O)[C@H](CCCNC(=N)N)NC(=O)[C@H](CCCNC(=N)N)NC(=O)[C@H](CCC(N)=O)NC(=O)[C@H](Cc1c[nH]c2ccccc12)NC(=O)[C@H](CCC(N)=O)NC(=O)[C@H](Cc1ccc(O)cc1)NC(=O)[C@H](CSCNC(C)=O)NC(=O)[C@H](CCCCN)NC(=O)[C@@H](N)CO)C(=O)N[C@@H](CCCNC(=N)N)C(=O)N[C@@H](CCCCN)C(=O)N[C@@H](CC(C)C)C(=O)NCC(=O)N[C@@H](C)C(=O)O [Native LFG, SKCYQWQRRMRKLGA] (H-SKC(Acm)YQWQRRMRKLGA-OH; N-terminus assumed) |  |  | MIC E. coli ([1]; Table 4): 750 µg/mL (≈ 378 µM)
RWWRYWR-NH2 [LFM 18-24 R1, 7 W2,3, 6Y5NH2, ARG-TRP-TRP-ARG-TYR-TRP-ARG-CONH2] | 10 |  | MIC E. coli ([1]; Table 14, peptides with a proportion of D amino acids): 10 µg/mL

Reference: patent US20030022821A1, “Bioactive peptides” (priority 1998, published 2003)
